Data from ChEMBL document CHEMBL4229526, “Quinoxaline derivatives as potential antitrypanosomal and antileishmanial agents” (Bioorg Med Chem, 2018).

How the values were obtained:
Trypanosoma brucei = assay: Antitrypanosomal activity against Trypanosoma brucei Lister 427 bloodstream forms after 48 hrs by resazurin dye based fluorescence assay; type: functional, organism-based; conditions: Lister 427, 48 h
Trypanosoma cruzi [1] = assay: Antitrypanosomal activity against Trypanosoma cruzi Tulahuen amastigote forms infected in rat H9c2 cells assessed as reduction in amastigote number per cell after 72 hrs by DRAQ5 DNA dye based confocal microscopic analysis; type: functional, organism-based; conditions: H9c2, 72 h
THP-1 = assay: Cytotoxicity against human THP1 cells infected with Leishmania donovani MHOM/SD/62/1S-CL2D LdBOB amastigotes harboring eGFP assessed as reduction in cell number after 96 hrs by DAPI staining based microscopic analysis; conditions: THP-1, 96 h
[2] = Cytotoxicity against human HepG2 cells after 48 hrs by CellTiter-Glo cell viability assay; type: cell-based
H9c2 = assay: Cytotoxicity against rat H9c2 cells infected with Trypanosoma cruzi Tulahuen amastigote forms assessed as reduction in cell number after 72 hrs by DRAQ5 DNA dye based confocal microscopic analysis; conditions: H9c2, 72 h
Leishmania donovani [3] = assay: Antileishmanial activity against Leishmania donovani MHOM/SD/62/1S-CL2D LdBOB amastigotes harboring eGFP infected in human THP1 cells assessed as reduction in infected cells after 96 hrs by DAPI staining based microscopic analysis; type: functional, organism-based; conditions: THP-1, 96 h
Leishmania donovani [4] = assay: Antileishmanial activity against Leishmania donovani MHOM/SD/62/1S-CL2D LdBOB axenic amastigotes harboring eGFP after 72 hrs by resazurin dye based fluorescence assay; type: functional, organism-based
Leishmania donovani [5] = assay: Antileishmanial activity against Leishmania donovani MHOM/SD/62/1S-CL2D LdBOB amastigotes harboring eGFP infected in human THP1 cells assessed as reduction in number of amastigotes per cell after 96 hrs by DAPI staining based microscopic analysis; type: functional, organism-based; conditions: THP-1, 96 h
Trypanosoma cruzi [6] = assay: Antitrypanosomal activity against Trypanosoma cruzi Tulahuen amastigote forms infected in rat H9c2 cells assessed as reduction in infected cells after 72 hrs by DRAQ5 DNA dye based confocal microscopic analysis; type: functional, organism-based; conditions: H9c2, 72 h
Trypanosoma cruzi [7] = assay: Antitrypanosomal activity against Trypanosoma cruzi Tulahuen trypomastigote forms infected in monkey LLC-MK2 cells after 24 hrs by CellTiter-Glo luminescent cell viability assay; type: functional, organism-based; conditions: LLC-MK2, 24 h

## COc1ccc(-c2nc3ccccc3nc2-c2ccc(OC)cc2)cc1
Trypanosoma brucei
  IC50: 31.6 µM
Trypanosoma cruzi [1]
  IC50: 10 µM
THP-1
  IC50: > 50 µM
[2]
  CC50 at 48 h: > 100 µM
H9c2
  IC50: > 50 µM
Leishmania donovani [3]
  IC50: > 50 µM
Leishmania donovani [4]
  IC50: > 50 µM
Leishmania donovani [5]
  IC50: > 50 µM
Trypanosoma cruzi [6]
  IC50: 12.6 µM
Trypanosoma cruzi [7]
  IC50: > 50 µM

## Clc1ccc2nc(-c3ccccc3)c(-c3ccccc3)nc2c1
Trypanosoma brucei
  IC50: 25.1 µM
Trypanosoma cruzi [1]
  IC50: 15.8 µM
THP-1
  IC50: > 50 µM
[2]
  CC50 at 48 h: > 100 µM
H9c2
  IC50: > 50 µM
Leishmania donovani [3]
  IC50: > 50 µM
Leishmania donovani [4]
  IC50: > 50 µM
Leishmania donovani [5]
  IC50: > 50 µM
Trypanosoma cruzi [6]
  IC50: 19.9 µM
Trypanosoma cruzi [7]
  IC50: > 50 µM

## Clc1cc2nc(-c3ccccc3)c(-c3ccccc3)nc2cc1Cl
Trypanosoma brucei
  IC50: 39.8 µM
Trypanosoma cruzi [1]
  IC50: > 50 µM
THP-1
  IC50: > 50 µM
[2]
  CC50 at 48 h: > 100 µM
H9c2
  IC50: > 50 µM
Leishmania donovani [3]
  IC50: > 50 µM
Leishmania donovani [4]
  IC50: > 50 µM
Leishmania donovani [5]
  IC50: > 50 µM
Trypanosoma cruzi [6]
  IC50: > 50 µM
Trypanosoma cruzi [7]
  IC50: > 50 µM

## Cc1ccc(-c2nc3cc(Cl)c(Cl)cc3nc2-c2ccccc2)cc1
Trypanosoma brucei
  IC50: 19.9 µM
Trypanosoma cruzi [1]
  IC50: 10 µM
THP-1
  IC50: > 50 µM
[2]
  CC50 at 48 h: > 100 µM
H9c2
  IC50: > 50 µM
Leishmania donovani [3]
  IC50: > 50 µM
Leishmania donovani [4]
  IC50: > 50 µM
Leishmania donovani [5]
  IC50: > 50 µM
Trypanosoma cruzi [6]
  IC50: 15.8 µM
Trypanosoma cruzi [7]
  IC50: > 50 µM

## CCCCNc1nc2ccc(OC)cc2nc1S(C)(=O)=O
Trypanosoma brucei
  IC50: 25.1 µM
Trypanosoma cruzi [1]
  IC50: 19.9 µM
THP-1
  IC50: 12.6 µM
[2]
  CC50 at 48 h: 19.9 µM
H9c2
  IC50: 15.8 µM
Leishmania donovani [3]
  IC50: 31.6 µM
Leishmania donovani [4]
  IC50: 12.6 µM
Leishmania donovani [5]
  IC50: 25.1 µM
Trypanosoma cruzi [6]
  IC50: 19.9 µM
Trypanosoma cruzi [7]
  IC50: 8.86 µM

## COc1ccc2nc(NCCO)c(S(C)(=O)=O)nc2c1
Trypanosoma brucei
  IC50: 39.8 µM
Trypanosoma cruzi [1]
  IC50: 31.6 µM
THP-1
  IC50: 31.6 µM
[2]
  CC50 at 48 h: 39.8 µM
H9c2
  IC50: 31.6 µM
Leishmania donovani [3]
  IC50: > 50 µM
Leishmania donovani [4]
  IC50: 25.1 µM
Leishmania donovani [5]
  IC50: 25.1 µM
Trypanosoma cruzi [6]
  IC50: 39.8 µM
Trypanosoma cruzi [7]
  IC50: 23.5 µM

## CCCCNc1nc2ccccc2nc1S(C)(=O)=O
Trypanosoma brucei
  IC50: 25.1 µM
Trypanosoma cruzi [1]
  IC50: 15.8 µM
THP-1
  IC50: 12.6 µM
[2]
  CC50 at 48 h: 12.6 µM
H9c2
  IC50: 10 µM
Leishmania donovani [3]
  IC50: 25.1 µM
Leishmania donovani [4]
  IC50: 10 µM
Leishmania donovani [5]
  IC50: 19.9 µM
Trypanosoma cruzi [6]
  IC50: 15.8 µM
Trypanosoma cruzi [7]
  IC50: 8.67 µM

## COc1ccc2nc(NC3CCCCC3)c(S(C)(=O)=O)nc2c1
Trypanosoma brucei
  IC50: 15.8 µM
Trypanosoma cruzi [1]
  IC50: 12.6 µM
THP-1
  IC50: 10 µM
[2]
  CC50 at 48 h: 12.6 µM
H9c2
  IC50: 6.31 µM
Leishmania donovani [3]
  IC50: 7.94 µM
Leishmania donovani [4]
  IC50: 10 µM
Leishmania donovani [5]
  IC50: 6.31 µM
Trypanosoma cruzi [6]
  IC50: 15.8 µM
Trypanosoma cruzi [7]
  IC50: 3.64 µM

## CCCCNc1nc2cc(OC)ccc2nc1S(C)(=O)=O
Trypanosoma brucei
  IC50: 25.1 µM
Trypanosoma cruzi [1]
  IC50: 25.1 µM
THP-1
  IC50: > 50 µM
[2]
  CC50 at 48 h: > 100 µM
H9c2
  IC50: 31.6 µM
Leishmania donovani [3]
  IC50: > 50 µM
Leishmania donovani [4]
  IC50: > 50 µM
Leishmania donovani [5]
  IC50: > 50 µM
Trypanosoma cruzi [6]
  IC50: 39.8 µM
Trypanosoma cruzi [7]
  IC50: 41.8 µM

## COc1ccc2nc(S(C)(=O)=O)c(NCCO)nc2c1
Trypanosoma brucei
  IC50: 39.8 µM
Trypanosoma cruzi [1]
  IC50: > 50 µM
THP-1
  IC50: > 50 µM
[2]
  CC50 at 48 h: > 100 µM
H9c2
  IC50: > 50 µM
Leishmania donovani [3]
  IC50: > 50 µM
Leishmania donovani [4]
  IC50: > 50 µM
Leishmania donovani [5]
  IC50: > 50 µM
Trypanosoma cruzi [6]
  IC50: > 50 µM
Trypanosoma cruzi [7]
  IC50: 0.77 µM

## COc1ccc2nc(S(C)(=O)=O)c(NC3CCCCC3)nc2c1
Trypanosoma brucei
  IC50: 25.1 µM
Trypanosoma cruzi [1]
  IC50: 15.8 µM
THP-1
  IC50: 31.6 µM
[2]
  CC50 at 48 h: 79.4 µM
H9c2
  IC50: 19.9 µM
Leishmania donovani [3]
  IC50: > 50 µM
Leishmania donovani [4]
  IC50: > 50 µM
Leishmania donovani [5]
  IC50: > 50 µM
Trypanosoma cruzi [6]
  IC50: 19.9 µM
Trypanosoma cruzi [7]
  IC50: 42.5 µM

## COc1ccc2nc(S(C)(=O)=O)c(NCC(C)C)nc2c1
Trypanosoma brucei
  IC50: 31.6 µM
Trypanosoma cruzi [1]
  IC50: 31.6 µM
THP-1
  IC50: > 50 µM
[2]
  CC50 at 48 h: 79.4 µM
H9c2
  IC50: 31.6 µM
Leishmania donovani [3]
  IC50: > 50 µM
Leishmania donovani [4]
  IC50: > 50 µM
Leishmania donovani [5]
  IC50: > 50 µM
Trypanosoma cruzi [6]
  IC50: 31.6 µM
Trypanosoma cruzi [7]
  IC50: 44 µM

## COc1ccc2nc(S(C)(=O)=O)c(NCCC(C)C)nc2c1
Trypanosoma brucei
  IC50: 25.1 µM
Trypanosoma cruzi [1]
  IC50: 15.8 µM
THP-1
  IC50: 39.8 µM
[2]
  CC50 at 48 h: 50.1 µM
H9c2
  IC50: 31.6 µM
Leishmania donovani [3]
  IC50: > 50 µM
Leishmania donovani [4]
  IC50: > 50 µM
Leishmania donovani [5]
  IC50: > 50 µM
Trypanosoma cruzi [6]
  IC50: 19.9 µM
Trypanosoma cruzi [7]
  IC50: > 50 µM

## CCCCNc1nc2cc(Br)ccc2nc1S(C)(=O)=O
Trypanosoma brucei
  IC50: 6.31 µM
Trypanosoma cruzi [1]
  IC50: 5.01 µM
THP-1
  IC50: 7.94 µM
[2]
  CC50 at 48 h: 7.94 µM
H9c2
  IC50: 5.01 µM
Leishmania donovani [3]
  IC50: 10 µM
Leishmania donovani [4]
  IC50: 5.01 µM
Leishmania donovani [5]
  IC50: 6.31 µM
Trypanosoma cruzi [6]
  IC50: 7.94 µM
Trypanosoma cruzi [7]
  IC50: 0.98 µM

## COc1ccc2nc(NCC(C)C)c(S(C)(=O)=O)nc2c1
Trypanosoma brucei
  IC50: 25.1 µM
Trypanosoma cruzi [1]
  IC50: 15.8 µM
THP-1
  IC50: 7.94 µM
[2]
  CC50 at 48 h: 12.6 µM
H9c2
  IC50: 10 µM
Leishmania donovani [3]
  IC50: 19.9 µM
Leishmania donovani [4]
  IC50: 12.6 µM
Leishmania donovani [5]
  IC50: 12.6 µM
Trypanosoma cruzi [6]
  IC50: 19.9 µM
Trypanosoma cruzi [7]
  IC50: 5.44 µM
